From patent publication US10206908B2, “3-(1H-pyrrolo[3,2-C]pyridin-2-YL)-1H-pyrazolo[3,4-C]pyridines and therapeutic uses thereof” (Samumed, LLC, priority 2015, dated 2019)

Key:
Format in all cases: cell-based
[1] = tested on: Wnt activity (Sp5-Luc reporter, SW480 colon carcinoma cells); assay: Screening assay for Wnt activity: Sp5-Luc reporter gene assay in SW480 colon carcinoma cells; conditions: Homo sapiens; for inhibition at 10 µM: SW480, read-out: percent inhibition at 10 μM; for EC50: Sp5-Luc reporter, SW480 cells, overnight incubation
Outline: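 SW480 colon carcinoma cells stably carrying Sp5 promoter (eight TCF/LEF sites)-driven firefly luciferase, plated at 4,000 cells/well in 1% FBS medium and incubated overnight at 37° C. Luminescence normalised to DMSO-only cells; EC50 from four-parameter variable-slope nonlinear regression.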

[2] = tested on: IL-6 (THP-1 cells); assay: IL-6 inhibition in LPS-stimulated THP-1 monocytes (HTRF); conditions: Homo sapiens; for inhibition at 10 µM: THP-1, read-out: percent inhibition at 10 μM; for EC50: IL-6, THP-1 cells, LPS 500 ng/mL, 22 hours
Outline: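 THP-1 cells kept 24 h in 1% FBS medium, exposed to compound 2 h at 37 °C, then stimulated with 500 ng/mL LPS for 22 h. Secreted IL-6 quantified by HTRF (665/620 nm ratio), duplicates. Values normalized to DMSO; EC50 by four-parameter variable-slope regression.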

[3] = tested on: SW480 colon cancer cells; assay: Cell viability assay (CellTiter-Blue) in SW480 colon cancer cells; conditions: Homo sapiens; for EC50: 96 h, SW480 cell viability, four days; for inhibition at 10 µM: SW480, read-out: percent inhibition at 10 μM
Outline: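 Fluorescence from resazurin reduced to resorufin by metabolically active cells was the read-out, taken after ~3 h with CellTiter-Blue.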

[4] = tested on: primary human fibroblasts derived from IPF patients (LL29 cells) treated with TGF-β1; assay: Inhibition of the fibrotic process: αSMA staining in TGF-β1 treated LL29 fibroblasts; conditions: Fibroblast; for EC50: 96 h, % αSMA positive LL29 cells, TGF-β1 20 ng/mL, 4 days
Outline: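 IPF-patient-derived LL29 lung fibroblasts in F12 with 1% FBS, stimulated with TGF-β1 alongside compound; TGF-β1 plus DMSO wells served as controls. After 4 days, nuclei stained with 1 μM SYTOX green for 30 min at room temperature, alongside αSMA staining.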

[5] = tested on: primary human mesenchymal stem cells (hMSCs); assay: Induction of chondrogenesis in hMSCs (chondrogenic nodules, Rhodamine B/Nile Red); conditions: 6 days; for EC50: concentration required to induce 50% levels of chondrogenesis vs TGF-β3, read-out: Conc (nM) of 50% TGF-β3 activity; for Emax: relative to TGF-β3 (10 ng/mL) positive control, read-out: Max. Activity as % TGF-β3 activity
Excerpt: Representative compounds were screened using primary human mesenchymal stem cells (hMSCs) to determine their ability to induce chondrogenesis (process by which cartilage is developed).
Human Mesenchymal Stem Cell Culture: Primary human mesenchymal stem cells (hMSCs) were purchased from Lonza (Walkersville, Md.) and expanded in Mesenchymal Stem Cell Growth Media (Lonza). Cells between passage 3 and 6 were used for the experiments.
Number of nodules in each well was normalized to the average of 3 DMSO treated wells on the same plate using Excel (Microsoft Inc.). The normalized averages (fold change over DMSO) of 3 replicate wells for each compound concentration were calculated. Due to solubility limitations of some of the compounds, curve fitting was incomplete leading to inaccurate EC50 determinations.
Using TGF-β3 as a positive control, the concentration of representative compounds required to induce 50% levels of chondrogenesis is reported. In addition, the maximum activity of each compound and the respective dose that each compound reached maximum chondrogenesis activity is reported.

Row | EC50 [1] | EC50 [2] | EC50 [3] | EC50 [5] | Compound | inhibition at 10 µM [1] | inhibition at 10 µM [2] | inhibition at 10 µM [3] | EC50 [4] | Emax [5] | inhibition at 10 µM ([4]; read-out: percent inhibition at 10 μM)
1 | > 10000 nM | > 10000 nM | > 10000 nM | 900 nM | c1ccc(CNCc2cncc(-c3cc4c(-c5cc6c(-c7ccncc7)nccc6[nH]5)n[nH]c4cn3)c2)cc1 [Compound 136, N-Benzyl-1-(5-(3-(4-(pyridin-4-yl)-1H-pyrrolo[3,2-c]pyridin-2-yl)-1H-pyrazolo[3,4-c]pyridin-5-yl)pyridin-3-yl)methanamine] | 50.4% | 0% | 23% | 560 nM | 67% | 
2 | 2770 nM | 1020 nM | 2370 nM | 10 nM | CCNCc1cncc(-c2cc3c(-c4cc5c(N6CCCCC6)nccc5[nH]4)n[nH]c3cn2)c1 [Compound 174, N-((5-(3-(4-(Piperidin-1-yl)-1H-pyrrolo[3,2-c]pyridin-2-yl)-1H-pyrazolo[3,4-c]pyridin-5-yl)pyridin-3-yl)methyl)ethanamine] |  |  |  | 1200 nM | 183% | 
3 | 4070 nM | 3430 nM | 4890 nM |  | O=C(Nc1cncc(-c2cc3c(-c4cc5c(N6CCCCC6)nccc5[nH]4)n[nH]c3cn2)c1)C1CCC1 [Compound 189, N-(5-(3-(4-(Piperidin-1-yl)-1H-pyrrolo[3,2-c]pyridin-2-yl)-1H-pyrazolo[3,4-c]pyridin-5-yl)pyridin-3-yl)cyclobutanecarboxamide] |  |  |  | 1220 nM | 42% | 
4 | > 10000 nM | 743 nM | > 10000 nM | 30 nM | CCC(=O)Nc1cncc(-c2cc3c(-c4cc5c(N6CCN(C)CC6)nccc5[nH]4)n[nH]c3cn2)c1 [Compound 225, N-(5-(3-(4-(4-Methylpiperazin-1-yl)-1H-pyrrolo[3,2-c]pyridin-2-yl)-1H-pyrazolo[3,4-c]pyridin-5-yl)pyridin-3-yl)propionamide] | 52.4% |  | 7.9% | 5300 nM | 70% | 
5 | > 10000 nM | > 10000 nM | > 10000 nM |  | CN1CCN(c2nccc3[nH]c(-c4n[nH]c5cnc(-c6cncc(N)c6)cc45)cc23)CC1 [Compound 227, 5-(3-(4-(4-Methylpiperazin-1-yl)-1H-pyrrolo[3,2-c]pyridin-2-yl)-1H-pyrazolo[3,4-c]pyridin-5-yl)pyridin-3-amine] | 46.2% | 39.5% | 20.5% | 5410 nM | 50% | 
6 | 1880 nM | 388 nM | > 10000 nM | 10 nM | CN1CCN(c2nccc3[nH]c(-c4n[nH]c5cnc(-c6cncc(NC(=O)C(C)(C)C)c6)cc45)cc23)CC1 [Compound 232, N-(5-(3-(4-(4-Methylpiperazin-1-yl)-1H-pyrrolo[3,2-c]pyridin-2-yl)-1H-pyrazolo[3,4-c]pyridin-5-yl)pyridin-3-yl)pivalamide] |  |  | 62.2% | 756 nM | 88% | 
7 | 2800 nM | 1340 nM | > 10000 nM | 10 nM | CN1CCN(c2nccc3[nH]c(-c4n[nH]c5cnc(-c6cncc(NC(=O)c7ccccc7)c6)cc45)cc23)CC1 [Compound 235, N-(5-(3-(4-(4-Methylpiperazin-1-yl)-1H-pyrrolo[3,2-c]pyridin-2-yl)-1H-pyrazolo[3,4-c]pyridin-5-yl)pyridin-3-yl)benzamide] |  |  | 21.5% | 2460 nM | 67% | 
8 | 3890 nM | 4680 nM | > 10000 nM |  | CN(C)Cc1cncc(-c2cc3c(-c4cc5c(N6CCN(C)CC6)nccc5[nH]4)n[nH]c3cn2)c1 [Compound 237, N,N-Dimethyl-1-(5-(3-(4-(4-methylpiperazin-1-yl)-1H-pyrrolo[3,2-c]pyridin-2-yl)-1H-pyrazolo[3,4-c]pyridin-5-yl)pyridin-3-yl)methanamine] |  |  | 43.7% | > 10000 nM | 14% | 37%
9 | 3420 nM | 4600 nM | > 10000 nM | 10 nM | CN1CCN(c2nccc3[nH]c(-c4n[nH]c5cnc(-c6cncc(NC(=O)C7CCCCC7)c6)cc45)cc23)CC1 [Compound 247, N-(5-(3-(4-(4-Methylpiperazin-1-yl)-1H-pyrrolo[3,2-c]pyridin-2-yl)-1H-pyrazolo[3,4-c]pyridin-5-yl)pyridin-3-yl)cyclohexanecarboxamide] |  |  | 40.3% | 2990 nM | 61% | 
10 | 1100 nM | 323 nM | 2370 nM | 10 nM | CN1CCN(c2nccc3[nH]c(-c4n[nH]c5cnc(-c6cncc(CN7CCC(F)(F)C7)c6)cc45)cc23)CC1 [Compound 250, 5-(5-((3,3-Difluoropyrrolidin-1-yl)methyl)pyridin-3-yl)-3-(4-(4-methylpiperazin-1-yl)-1H-pyrrolo[3,2-c]pyridin-2-yl)-1H-pyrazolo[3,4-c]pyridine] |  |  |  | 641 nM | 76% | 
11 | 133 nM | 362 nM | 628 nM | 30 nM | c1cncc(-c2cc3c(-c4cc5cnccc5[nH]4)n[nH]c3cn2)c1 [Compound 256, 5-(Pyridin-3-yl)-3-(1H-pyrrolo[3,2-c]pyridin-2-yl)-1H-pyrazolo[3,4-c]pyridine] |  |  |  | 25 nM | 62% | 
12 | 389 nM | 944 nM | 798 nM | 10 nM | Cc1ccncc1-c1cc2c(-c3cc4cnccc4[nH]3)n[nH]c2cn1 [Compound 257, 5-(4-Methylpyridin-3-yl)-3-(1H-pyrrolo[3,2-c]pyridin-2-yl)-1H-pyrazolo[3,4-c]pyridine] |  |  |  | 376 nM | 61% | 
13 | 3060 nM | 2220 nM | 1600 nM | 300 nM | CN(C)c1cncc(-c2cc3c(-c4cc5cnccc5[nH]4)n[nH]c3cn2)c1 [Compound 259, 5-(3-(1H-Pyrrolo[3,2-c]pyridin-2-yl)-1H-pyrazolo[3,4-c]pyridin-5-yl)-N,N-dimethylpyridin-3-amine] |  |  |  | 401 nM | 101% | 
14 | 399 nM | 623 nM | 2250 nM | 30 nM | CC(C)C(=O)Nc1cncc(-c2cc3c(-c4cc5cnccc5[nH]4)n[nH]c3cn2)c1 [Compound 261, N-(5-(3-(1H-Pyrrolo[3,2-c]pyridin-2-yl)-1H-pyrazolo[3,4-c]pyridin-5-yl)pyridin-3-yl)isobutyramide] |  |  |  | 472 nM | 61% | 
15 | 580 nM | > 10000 nM | > 10000 nM | 10 nM | O=C(Nc1cncc(-c2cc3c(-c4cc5cnccc5[nH]4)n[nH]c3cn2)c1)c1ccccc1 [Compound 263, N-(5-(3-(1H-Pyrrolo[3,2-c]pyridin-2-yl)-1H-pyrazolo[3,4-c]pyridin-5-yl)pyridin-3-yl)benzamide] |  | 10.3% | 8.5% | 97 nM | 152% | 
16 | 1890 nM | 3460 nM | 5040 nM | 10 nM | CC(C)(C)CC(=O)Nc1cncc(-c2cc3c(-c4cc5cnccc5[nH]4)n[nH]c3cn2)c1 [Compound 268, N-(5-(3-(1H-Pyrrolo[3,2-c]pyridin-2-yl)-1H-pyrazolo[3,4-c]pyridin-5-yl)pyridin-3-yl)-3,3-dimethylbutanamide] |  |  |  | 4010 nM | 59% | 
17 | 3880 nM | 4610 nM | > 10000 nM |  | CCCCC(=O)Nc1cncc(-c2cc3c(-c4cc5cnccc5[nH]4)n[nH]c3cn2)c1 [Compound 271, N-(5-(3-(1H-Pyrrolo[3,2-c]pyridin-2-yl)-1H-pyrazolo[3,4-c]pyridin-5-yl)pyridin-3-yl)pentanamide] |  |  | 26.2% | 4690 nM | 50% | 
